From publication PMC9127750, “Structure-based design of CDC42 effector interaction inhibitors for the treatment of cancer” (Cell reports, 2022)
“And” between values parts separate entries of the source, which are not always exact repeats. Equal values may be shown once.

Tested on: WM3248 melanoma cells, 486 antibodies
Assay: Reverse phase protein arrays (RPPA)
Assay type: cell-based, Human
Source text: Pellets were snap frozen in liquid nitrogen and shipped to MD Anderson Cancer Center core RPPA facility for RPPA analysis (Table S5). Three biological replicates for each sample were generated.
Nomenclatures on the RPPA heatmaps: name_of_antibody.species_of_antibody.status_of_antibody. V - antibody validated; C - validation of antibody in progress; Q - antibody nonspecific; E – under evaluation; antibodies raised in M - mouse, G - goat, R - rabbit, or T - rat.

[1] = Norm_10: replicates 1-3 and Average, relative to 0

## CN(C)c1cccc(Nc2cc(-c3ccccc3)nc(C3CCNCC3)n2)c1 [ARN22089, N1,N1-dimethyl-N3-(6-phenyl-2-(piperidin-4-yl)pyrimidin-4-yl)benzene-1,3-diamine]
Norm_10, normalized to Norm_0
  p38.MAPK.R.V Average: 0.984
  p38.MAPK._pT180_Y182.R.V Average: 0.822
  p38.a.M.V Average: 1.035
  p44.42.MAPK.R.V Average: 1.129
  p70.S6K1.R.V Average: 1.024
  p90RSK_pT573.R.C Average: 0.999
[1]
  PREX1.R.V normalized RPPA signal: 1.017 and 0.962 and 0.972
  PTEN.R.V normalized RPPA signal: 1.166 and 0.849 and 0.856 and 0.957
  PTPN12.R.V normalized RPPA signal: 0.749 and 0.939 and 0.909
  PYGB.R.V normalized RPPA signal: 1.205 and 1.156 and 1.144
  PYGM.M.C normalized RPPA signal: 0.918 and 2.001 and 1.335
  Puma.R.C normalized RPPA signal: 1.060 and 1.017 and 1.055
  Pyk2_pY402.R.C normalized RPPA signal: 1.111 and 0.863 and 0.946
  RBM15.R.V normalized RPPA signal: 0.891 and 1.000 and 0.960 and 0.950
  RIP3.R.C normalized RPPA signal: 0.942 and 0.921 and 0.948 and 0.937
  RIP.R.C normalized RPPA signal: 0.780 and 1.118 and 1.150 and 1.016
  RPA32.R.V normalized RPPA signal: 1.060 and 1.362 and 1.197 and 1.207
  RPA32_pS4_S8.R.C normalized RPPA signal: 1.546 and 1.295 and 1.489 and 1.443
  RRM1.R.C normalized RPPA signal: 0.939 and 0.806 and 0.945 and 0.897
  RRM2.R.C normalized RPPA signal: 0.757 and 0.774 and 0.866
  RSK1.R.V normalized RPPA signal: 1.143 and 1.201 and 1.128
  RSK.R.C normalized RPPA signal: 0.838 and 1.004 and 0.972
  Rab11.R.C normalized RPPA signal: 1.030 and 0.917 and 0.953
  Rab25.R.V normalized RPPA signal: 1.035 and 0.882 and 0.858 and 0.925
  Rad17_pS645.R.V normalized RPPA signal: 0.792 and 0.966
  Rad23A.R.C normalized RPPA signal: 0.804 and 0.923 and 1.597 and 1.108
  Rad50.R.V normalized RPPA signal: 1.116 and 1.111
  Rad51.R.C normalized RPPA signal: 0.827 and 0.908 and 0.944 and 0.893
  Raptor.R.V normalized RPPA signal: 0.845 and 0.882 and 0.940 and 0.889
  Rb.M.Q normalized RPPA signal: 0.863 and 1.097 and 1.016
  Rb_pS807_S811.R.V normalized RPPA signal: 0.811 and 0.958 and 0.878
  Rheb.M.C normalized RPPA signal: 1.032 and 1.240 and 1.115
  Rictor.R.C normalized RPPA signal: 0.988 and 0.910 and 0.945 and 0.948
  Rictor_pT1135.R.V normalized RPPA signal: 0.873 and 0.950 and 0.954
  S6.M.V normalized RPPA signal: 1.085 and 0.996 and 1.017
  S6_pS235_S236.R.V normalized RPPA signal: 0.521 and 0.472 and 0.641 and 0.545
  S6_pS240_S244.R.V normalized RPPA signal: 0.582 and 0.274 and 0.654 and 0.504
  SCD.M.V normalized RPPA signal: 0.991 and 1.046
  SDHA.R.V normalized RPPA signal: 0.992 and 0.940 and 0.859 and 0.930
  SF2.R.V normalized RPPA signal: 0.895 and 1.050 and 0.922 and 0.956
  SFRP1.R.V normalized RPPA signal: 0.808 and 0.981 and 1.003 and 0.931
  SGK1.R.V normalized RPPA signal: 1.008 and 0.920 and 1.014 and 0.981
  SGK3.R.V normalized RPPA signal: 0.816 and 0.987 and 0.963 and 0.922
  SHP2.R.V normalized RPPA signal: 0.944 (2×) and 1.029 and 0.972
  SHP.2_pY542.R.C normalized RPPA signal: 1.060 and 0.917 and 0.992 and 0.990
  SIRPαR.V normalized RPPA signal: 0.835 and 1.085 and 0.937 and 0.953
  SLC1A5.R.C normalized RPPA signal: 1.027
  SOD1.M.V normalized RPPA signal: 0.907 and 1.127 and 1.007 and 1.014
  SOD2.R.V normalized RPPA signal: 1.018 and 1.276 and 0.952 and 1.082
  SOX7.R.V normalized RPPA signal: 1.145 and 1.060
  STING.R.V normalized RPPA signal: 0.851 and 0.953
  Shc_pY317.R.C normalized RPPA signal: 0.714 and 5.496 and 1.397 and 2.535
  Slfn11.G.C normalized RPPA signal: 0.876 and 1.082 and 1.481 and 1.146
  Smac.M.Q normalized RPPA signal: 0.850 and 1.137 and 0.963 and 0.983
  Smad1.R.V normalized RPPA signal: 0.960 and 0.924 and 0.963
  Smad3.R.V normalized RPPA signal: 1.062 and 0.979 and 1.026
  Smad4.R.V normalized RPPA signal: 1.013 and 1.128 and 0.985
  Snail.M.Q normalized RPPA signal: 0.664 and 0.941 and 0.860 and 0.822
  Sox2.R.V normalized RPPA signal: 1.126 and 1.008 and 0.910 and 1.015
  Sox17.R.V normalized RPPA signal: 0.905 and 1.111 and 1.000 and 1.005
  Src.M.V normalized RPPA signal: 0.883 and 1.206 and 0.940 and 1.010
  Src_pY416.R.V normalized RPPA signal: 1.030 and 0.914 and 0.902
  Src_pY527.R.V normalized RPPA signal: 1.278 and 0.689 and 0.973
  Stat1_pY701.R.V normalized RPPA signal: 0.995 (2×) and 1.011 and 1.000
  Stat3.R.C normalized RPPA signal: 0.999 and 0.915 and 0.942
  Stat3_pY705.R.C normalized RPPA signal: 1.077 and 1.148 and 1.012 and 1.079
  Stat5a.R.V normalized RPPA signal: 1.155 and 0.661 and 0.766 and 0.861
  Stathmin.1.R.V normalized RPPA signal: 0.870 and 1.129 and 0.982
  Syk.M.V normalized RPPA signal: 0.771 and 0.940 and 1.123 and 0.945
  Synaptophysin.R.C normalized RPPA signal: 0.939 and 1.003 and 0.960
  TAZ.R.V normalized RPPA signal: 0.664 and 1.279 and 1.012
  TEAD.R.C normalized RPPA signal: 0.761 and 0.855 and 1.077 and 0.898
  TFAM.R.V normalized RPPA signal: 0.933 and 0.917 and 0.914 and 0.921
  TFRC.R.V normalized RPPA signal: 0.993 and 0.819 and 0.888 and 0.900
  TIGAR.R.V normalized RPPA signal: 0.948 and 0.928 and 0.972
  TRAP1.M.V normalized RPPA signal: 0.886 and 1.063 and 0.996
  TRIM24.R.C normalized RPPA signal: 0.955 and 1.027
  TRIM25.R.C normalized RPPA signal: 0.793 and 0.863 and 1.102 and 0.919
  TRIP13.R.V normalized RPPA signal: 1.018 and 1.029 and 1.031
  Tau.M.C normalized RPPA signal: 1.047 and 1.298 and 0.928
  Transglutaminase.M.V normalized RPPA signal: 1.016 and 1.436 and 2.172 and 1.541
